Results on 86 molecules are retold here after a melting point compilation (Tetko et al.; mined from patent text by program, amines drawn as free bases though some values may be those of a salt).

In general, melting point refers to the temperature of the solid-liquid transition. The molecule `N#CC(NC(=O)C(F)(F)C(F)(F)F)c1ccc(Cl)cc1` (stereo unspecified) yielded a melting point of 118 °C. `Cc1ccc(Cc2cnc(NCCSCc3csc(CN(C)C)n3)[nH]c2=O)cn1` came in with a melting point of 154 to 155 °C. As for `CCN(CC)c1ccc(-c2nc(-c3cc(OC)c(O)c(OC)c3)n(C(=O)NS(=O)(=O)c3ccc(C)cc3)c2-c2ccc(N(CC)CC)cc2)cc1`, the melting point stood at 65 °C. Turning to `O=C(O)C1CCc2c(oc3cc(Cl)ccc23)C1` (stereo unspecified), the melting point fell in the range of 189 to 191 °C.

Consider `COC(=O)C1=C(C)NC(C)=C(C(=O)OCCN2CCC(C(c3ccccc3)c3ccccc3)CC2)C1c1cccc([N+](=O)[O-])c1` (stereo unspecified), for which the melting point was 82 to 85 °C. As for `C[Si](C)(C)c1c(C#N)c(C(F)(F)F)nn1-c1c(Cl)cc(C(F)(F)F)cc1Cl`, the melting point fell in the range of 108 to 110 °C.

For the molecule `CC(C)C(N)CN1CCC(Nc2nc3ccccc3n2Cc2ccc3ccccc3n2)CC1` (stereo unspecified), the melting point was found to be 135 °C. On to `Cc1nnc2ncc(-c3ccccc3Cl)nn12`, for which the melting point was in the range of 172 to 175 °C. `COc1cc2ncnc(N3CCc4c(Br)ccc(C)c43)c2cc1OC` registered a melting point of 223 to 225 °C. Take `NC(=O)N1c2ccccc2C=C(Br)c2ccccc21`: the melting point lay within 168 to 170 °C. For `O=C(Nc1ccccc1NS(=O)(=O)c1ccc(Cl)cc1)c1ccccc1`, the melting point lay in the range of 191 to 192 °C.

For `O=C(c1ccccc1)C(O)Cc1cccc(O)c1` (stereo unspecified), the melting point lay in the range of 118 to 119 °C. As for `CC(=O)OCc1nc([N+](=O)[O-])cn1C`, the melting point fell in the range of 93 to 95 °C. On to `O=C(c1ccc(F)cc1)c1ccc(OC(F)(F)F)cc1`, for which the melting point lay in the range of 42 to 43 °C.

Regarding `CCOCc1cc2ccccc2oc1=Nc1ccc(OC)cc1`, the melting point is 78 to 79 °C. `CCc1nn(CC(=O)O)c(CC)c1Oc1cc(Cl)cc(Cl)c1` came in with a melting point of 157 to 158 °C. As to `CC(C)c1cccc(C(C)C)c1NC(=O)N(c1ccccc1)c1nnn(CCCCCCCC=O)n1`, the melting point is 104 to 106 °C. With `CN(CCN(C)c1ccc([N+](=O)[O-])cc1)c1ccncc1` the figure was 126 to 127 °C; with `COc1cc2c(cc1Nc1ncc(Cl)c(N[C@H]3[C@@H](C(N)=O)[C@@H]4C=C[C@H]3C4)n1)CCN(CC(=O)N1CCN(C)CC1)CC2`, 190 °C. Then `Nc1nc(O)nc2nc(-c3ccco3)nn12`, with above 300 °C. For the molecule `Cn1c(SCSC#N)nc2ccccc2c1=O`, the melting point was in the range of 118 to 121 °C. Then `COc1ccccc1Nc1cc(C(=O)Nc2ccccc2)ccc1OC`, with 155 to 156 °C. `Cc1c(Br)c(=O)n(C2CCCC2)c2nc(Nc3ccc(N4CCOCC4)nc3)ncc12`: the melting point fell in the range of 254 to 256 °C. `CNS(=O)(=O)c1cc(OC)c(OC)c(C(=O)NCC2CCCN2CC2=CCCCC2)c1` (stereo unspecified) had a melting point of 120 to 121 °C.

Turning to `CNS(=O)(=O)c1ccc(N2CCN(c3ccncc3)CC2)cc1`, the melting point lay in the range of 204 to 206 °C.

For `CCCCCCCCOC(=O)c1ccc(OC(=O)c2ccc(C(=O)Oc3ccc(C(=O)OCCCCCCCC)cc3)cc2)cc1`, the melting point fell in the range of 108 to 110 °C. `CC(c1oc2ccc(Br)cc2c(=O)c1-c1ccccc1)n1cnc2c(N)ncnc21` (stereo unspecified) had a melting point of 230 to 231 °C. With `COc1cc(CN2Cc3cc(OC)c(O)cc3CC2C)cc(OC)c1` (stereo unspecified), the melting point was in the range of 155 to 158 °C. As for `O=C(N[C@H](Cc1ccccc1)C(=O)O)OCc1cc2cc(-c3ccsc3)ccc2o1`, the melting point was in the range of 169 to 170 °C. Molecule `CCN(CC)C(C#N)c1ccc(OCc2ccccc2)cc1` (stereo unspecified) displayed a melting point of 75 to 76 °C. `C#CCN1CCc2ccc([N+](=O)[O-])cc2CC1` yielded a melting point of 122 to 125 °C. As to `CCn1nnnc1C(C=CC=O)=C(c1ccc(F)cc1)c1ccc(F)cc1`, the melting point is 163 to 165 °C.

On to `CC(=O)C(C(=O)c1ccccc1)=C1CCCN1`, for which the melting point was in the range of 106 to 108 °C.

In turn, `CCN(c1ccc(Cl)cc1C#N)S(=O)(=O)c1ccc(C)cc1` showed a melting point of 138 to 140 °C. Consider `COC12CC(C)(c3nnc(-c4cncc(Br)c4)o3)CN(C)C1Cc1cn(C)c3cccc2c13` (stereo unspecified), for which the melting point lay in the range of 171 to 174 °C. In turn, `CC(C)C[C@H](NC(=O)N1CCCCCC1)C(=O)O` returned a melting point of 88 to 89 °C.

For `Cc1cc2c3c(ccn2n1)CCC3CCNC(=O)C1CC1` (stereo unspecified), the melting point was in the range of 112 to 113 °C. In the case of `CCOC(=O)CNc1nc2cccccc-2c1C#N`, the melting point lay within 186 to 188 °C.

`OC1CSC(Oc2ccc(Cl)nc2)C(O)C1O` (stereo unspecified) yielded a melting point of 218 °C. With `CCOCc1nc2c(N)nc3ccccc3c2n1CCc1cc(-c2ccc(F)cc2)no1` the figure was 180 to 181 °C; with `CC(C)(C)c1ccc(C(=O)Nc2cn3cc(-c4cnc[nH]4)ccc3n2)cc1`, 297 to 298 °C.

In turn, `COc1cc2c(cc1OC)-c1c(C(=O)NC3CCCCC3)c(-c3cc(C)c(O)c(C)c3)c(C)n1CC2` came in with a melting point of 273 to 276 °C. `c1ccc2c(c1)CCN(Cc1c[nH]c3ncccc13)C2` had a melting point of 190 to 192 °C. Then `CSC1CC(=O)N1CC(=O)NCc1ccccc1` (stereo unspecified), with 84 to 87 °C; and `CCOCc1nc2c(N)nc3cc(OCCCCCCNC(C)=O)ccc3c2n1CC(C)(C)NS(C)(=O)=O`, with 169 to 171 °C.

In the case of `CCCCCCCCSc1nc(NCC(C)(C)c2cc(C(C)(C)C)c(O)c(C(C)(C)C)c2)nc(NC2CC(C)(C)NC(C)(C)C2)n1`, the melting point came to 130 °C.

Take `O=C(Nc1ccc(N2CC(F)(F)C2)nc1)c1cc2cc(C(F)(F)F)cnc2n1Cc1cccc(F)c1`: the melting point lay in the range of 222 to 224 °C. For `COC(=O)C1=C(C)NC(C)=C(C(=O)OCCCCCCCCCCCN2C(=O)c3ccccc3C2=O)C1c1cccc([N+](=O)[O-])c1` (stereo unspecified), the melting point lay within 130 to 132 °C. In turn, `CCOC(=O)C=C(N)C(C)(C)OC(N)=O` displayed a melting point of 109 to 111 °C. In the case of `CC(C)(C)CN1c2ccccc2C(C)(C)C12C=Nc1c(ccc3ccccc13)O2` (stereo unspecified), the melting point lay in the range of 167 to 170 °C. In turn, `Cc1nn(CCCCO)c(-c2ccc(F)cc2)c1-c1ccc2c(c1)NC(=O)CO2` returned a melting point of 194 to 196 °C. `Nc1ccccc1-c1nc2ccccc2o1` had a melting point of 104 to 107 °C.

On to `COc1cccc(CCS(=O)c2nc3cnccc3[nH]2)c1` (stereo unspecified), for which the melting point was in the range of 125 to 128 °C. Consider `O=C([C@H]1CC[C@H](Nc2nccc(-n3ncc4ccccc43)n2)CC1)N1CCOCC1`, for which the melting point lay in the range of 191 to 192 °C.

Molecule `CC(c1ccc(F)cc1)n1nc(-c2ccc(F)cc2)c(-c2ccc(S(C)(=O)=O)cc2)cc1=O` (stereo unspecified) had a melting point of 185 to 186 °C. Turning to `CCn1ncc2c(OC)c3c(nc21)C(=O)c1ccccc1CC3`, the melting point lay within 197 to 200 °C.

`COC(=O)CCc1ccc(N2C(=O)CN(c3ccc(C#N)cc3)C2=O)cc1`: the melting point lay in the range of 188 to 190 °C. The molecule `COc1ccc(-c2c(O)c3ccccc3[nH]c2=O)cc1OC` gave a melting point of 312 to 314 °C. With `CC1=NN(C)c2nc(C)c(CCN3CCN(c4n[nH]c5ccccc45)CC3)c(=O)n2C1` the figure was 199 °C; with `Cc1ccc(-c2ccc3c(c2)C=C(C(=O)Nc2ccc(CN4CCCCC4)cc2)CC3)cc1`, 187 to 189 °C; with `CSCCc1nc(OCC(F)(F)F)c(C#N)c(N2CCc3ccccc3CC2)n1`, 97 to 100 °C. `CC(C)(C)c1ccc(NC(=O)N2CCCC3(CC2)CC(c2ccccc2)=NO3)cc1` (stereo unspecified) came in with a melting point of 137 to 142 °C. Turning to `CC(C)(C)c1cc2c(cc1O)C(C)(C)CC2(C)C`, the melting point was determined as 114 °C. For the molecule `COc1ccc(SCc2ccc(F)cc2F)c(Cl)c1Cl`, the melting point fell in the range of 86 to 88 °C. With `CCCCCCCCCCCCCC(=O)Nc1cc(NC(=O)CCCCCCCCCCCCC)cc(C(=O)N(CC(=O)O)CC(=O)O)c1` the figure was 109 to 111 °C; with `Nc1nc2ccccc2c2c1ncn2CC1CCCCO1` (stereo unspecified), 206 to 210 °C. In the case of `Cc1sc(-c2ccccc2)nc1COc1ccc(CCCC(O)C#N)cc1` (stereo unspecified), the melting point lay in the range of 101 to 102 °C. Molecule `CC1CC2(CC(C)(C)C1=O)OC(C)C(C)O2` (stereo unspecified) registered a melting point of 71 to 72 °C. For `CCn1c(=O)n(-c2ccc(N3CCn4c3nc3cccnc34)cc2)c2ncccc21`, the melting point was in the range of 255 to 256 °C. On to `CCP(=O)(O)c1cc(Oc2ccc(C(F)(F)F)cc2Cl)ccc1[N+](=O)[O-]`, for which the melting point was determined as 99 °C. On to `CC(C)CCSCC[C@H](O)[C@@H](N)CC(C)C`, for which the melting point lay within 64 to 65 °C. `CCC(C)(C)c1cc(-c2ccc(CC3SC(N4CCOCC4)=NC3=O)s2)ccc1O` (stereo unspecified): the melting point is 200 to 202 °C.

For `O=c1n(CCCC2CCCCC2)nnn1-c1ccc(S(=O)(=O)Cl)cc1`, the melting point fell in the range of 114 to 115 °C. As to `COc1ccccc1Cc1cnc(NCCSCc2nc[nH]c2C)[nH]c1=O`, the melting point is 163 to 167 °C. Consider `C=C(C)C(=O)OCCCc1ccc(-c2ccc(OC(=O)C(=C)C)cc2)cc1`, for which the melting point amounted to 69 °C.

In turn, `CCc1nc(-c2cnccn2)no1` came in with a melting point of 52 to 57 °C. Consider `CC(C)(C)NCC(O)COc1ccccc1Cc1cccc2[nH]ccc12` (stereo unspecified), for which the melting point was determined as 78 °C. On to `O=C1C(c2ccccc2)CC=C2c3ccsc3CCN12` (stereo unspecified), for which the melting point fell in the range of 159 to 161 °C. Then `CC(C)(Br)C(=O)ON1C(=O)CCC1=O`, with 72 to 74 °C.

Take `CC(=O)N1CCc2ccc(C(=O)CCCCl)cc2CC1`: the melting point was 103 to 106 °C. With `CC(C)(C)c1ccc(NC(Nc2ccc(C(C)(C)C)cc2)Nc2ccc(C(C)(C)C)cc2)cc1` the figure was 157 to 158 °C; with `Cc1n[nH]c(C)c1-c1ccc(OC2SCC(O)C(O)C2O)cn1` (stereo unspecified), 210 °C; with `Nc1nc2ccccc2c2c1ncn2CCCCNC(=O)c1cccc(Oc2ccccc2)c1`, 105 to 107 °C.

In turn, `CC(=O)c1ccccc1-c1ccc(C(=O)N2Cc3ccc(C(=O)NCc4cccnc4)n3Cc3ccccc32)cc1` returned a melting point of 149 to 150 °C. The molecule `Cc1cc(-c2ccccc2)n2ncc(C(=O)c3ccccc3)c2n1` registered a melting point of 165 to 166 °C. Turning to `CC(C)(C)OC(=O)Nc1ccc(C#Cc2ccccc2)cc1NC(=O)CC(=O)c1cccc([N+](=O)[O-])c1`, the melting point is 177 to 179 °C.
